Experimental data published in patent EP4603105A1, “PHARMACEUTICAL COMPOSITION CONTAINING CYCLIC COMPOUND HAVING SELECTIVE KRAS INHIBITORY EFFECT AGAINST HRAS AND NRAS” (CHUGAI SEIYAKU KABUSHIKI KAISHA, priority 2022, dated 2024).
Like-named read-outs stand apart in the source and are kept apart here. *1 amine or outer side, *2 acyl side, *3 side chain or, on linkers, in order; H or OH if unused. Where a SMILES comes first, the peptide text is derived from it. Bridges are numbered along the chain shown (N, C = ends). [ ]: non-standard residue; d: D form. The star is where a group is joined. hPhe(3,5-F2-4-CF3) = N[C@@H](CCc1cc(F)c(C(F)(F)F)c(F)c1)C(=O)O; hPhe(3-Cl-4-CF3) = N[C@@H](CCc1ccc(C(F)(F)F)c(Cl)c1)C(=O)O; X34 = COCCN([C@@H](Cc1ccc(C(F)(F)F)cc1)C(=O)[*:2])[*:1]; NPrPhe(4-CF3) = CCCN[C@@H](Cc1ccc(C(F)(F)F)cc1)C(=O)O; NMeGly(cPent) = CN[C@H](C(=O)O)C1CCCC1; Pro(4,4-F2) = O=C(O)[C@@H]1CC(F)(F)CN1; X3 = CCC[C@](C)(N[*:1])C(=O)[*:2]; NMeD = CN[C@@H](CC(=O)O)C(=O)O; NMeL = CN[C@@H](CC(C)C)C(=O)O; Morpholide = C1CN(*)CCO1; Ac5c = NC1(C(=O)O)CCCC1; Aze = O=C(O)[C@@H]1CCN1; Ac4c = NC1(C(=O)O)CCC1; Sar = CNCC(=O)O

Columns and labels:
[1] = target: HRAS wild-type protein (Homo sapiens, UniProt P01112); assay: Binding to HRAS by surface plasmon resonance (SPR), KD and KD ratio to KRAS
HRAS wild-type protein, sequence (P01112 whole entry): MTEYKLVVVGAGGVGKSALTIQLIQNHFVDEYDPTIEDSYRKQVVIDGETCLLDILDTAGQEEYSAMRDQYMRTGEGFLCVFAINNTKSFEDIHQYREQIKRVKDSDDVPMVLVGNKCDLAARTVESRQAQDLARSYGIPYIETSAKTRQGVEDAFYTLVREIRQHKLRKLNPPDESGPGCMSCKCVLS
Method in brief: (§1)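 Affinity is measured by surface plasmon resonance at 30°C against captured, GDP-loaded RAS carrying a biotinylated Avi tag. Compounds are titrated by single-cycle kinetics, and KD comes from a 1:1 fit.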

[2] = target: GDP-bound NRAS wild-type protein (Homo sapiens, UniProt P01111); assay: Binding to NRAS by surface plasmon resonance (SPR), KD and KD ratio to KRAS
GDP-bound NRAS wild-type protein, sequence (P01111 whole entry): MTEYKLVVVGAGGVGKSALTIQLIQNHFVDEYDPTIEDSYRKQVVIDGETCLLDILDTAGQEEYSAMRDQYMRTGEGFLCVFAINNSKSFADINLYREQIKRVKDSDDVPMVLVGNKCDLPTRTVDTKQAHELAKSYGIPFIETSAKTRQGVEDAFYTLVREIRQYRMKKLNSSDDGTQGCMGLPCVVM
Method in brief: as §1

[3] = test system: human lung cancer strain NCI-H441; assay type: cell-based
Method in brief: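 Readout: […] after the ATP-based reagent. Compound: serial dilutions in dimethyl sulfoxide.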

[4] = ratio of the KD value with respect to HRAS wild-type protein to the KD value with respect to KRAS
[5] = ratio of the KD value with respect to GDP-bound NRAS wild-type protein to the KD value with respect to KRAS
[6] = ratio of KD for HRAS wild-type protein to KD for KRAS
[7] = ratio of KD for GDP-bound NRAS wild-type protein to KD for KRAS
[8] = ratio of KD value for HRAS wild-type protein to KD value for KRAS (SPR)
[9] = ratio of KD value for GDP-bound NRAS wild-type protein to KD value for KRAS (SPR)

Compound	IC50 [3] [µM]	HRAS /KRAS [1, 6]	NRAS /KRAS [2, 7]	other results
CCCN1C(=O)[C@@H]2CCN2C(=O)CN(C)C(=O)[C@H]([C@@H](C)CC)NC(=O)[C@H](CC(C)C)N(C)C(=O)C[C@@H](C(=O)N(C)C)N(C)C(=O)[C@H](C2CCCC2)N(C)C(=O)C2(CCC2)NC(=O)[C@@H]2CC(F)(F)CN2C(=O)[C@H](CCc2ccc(C(F)(F)F)c(Cl)c2)NC(=O)CN(C)C(=O)[C@@H]1Cc1ccc(C(F)(F)F)cc1 [PP0443] ([NMeL]I[Sar][Aze][NPrPhe(4-CF3)][Sar][hPhe(3-Cl-4-CF3)][Pro(4,4-F2)][Ac4c][NMeGly(cPent)][NMeD]-NMe2; lactam N-11)	0.0009			HRAS /KRAS [1, 4]: C (A compound having a KD ratio of 0.1 or more and less than 3 is denoted as C); NRAS /KRAS [2, 5]: C (A compound having a KD ratio of 0.1 or more and less than 3 is denoted as C)
CCC[C@H]1C(=O)N[C@@H]([C@@H](C)CC)C(=O)N(C)CC(=O)N(C)[C@H]2C/C=C\CCN(C2=O)[C@@H](Cc2ccc(C(F)(F)F)cc2)C(=O)N(C)CC(=O)N[C@@H](CCc2cc(F)c(CC)c(OC)c2)C(=O)N2C[C@H](OCC)C[C@H]2C(=O)NC2(CC(C)(C)C2)C(=O)N(C)[C@@H](C2CCCC2)C(=O)N(C)[C@H](C(=O)N(C)C)CC(=O)N1C [PP2862]		B (a compound having 3 or more and less than 10 is denoted as B)	A (a compound having 10 or more and less than 20 is denoted as A)	IC50 ([3]; NCI-H441 cells, 4 days, CellTiter-Glo, read-out: NCl-H441 IC50): 0.0363 µM
CC[C@H](C)[C@@H]1NC(=O)[C@H](CC)N(C)C(=O)C[C@@H](C(=O)N(C)C)N(C)C(=O)[C@H](C2CCCC2)N(C)C(=O)C2(CCCC2)N(C)C(=O)[C@@H]2C[C@@H](C)CN2C(=O)[C@H](CCc2cc(F)c(C(F)(F)F)c(F)c2)NC(=O)CN(C)C(=O)[C@H](Cc2ccc(C)cc2)N2CC/C=C\C[C@@H](C2=O)N(C)C(=O)[C@@H]2CCCN2C1=O [PP1814]	0.0262			HRAS /KRAS [1, 8]: A (a compound having 10 or more and less than 20 is denoted as A); NRAS /KRAS [2, 9]: A (a compound having 10 or more and less than 20 is denoted as A)
CCCOC[C@H]1C(=O)N[C@@H]([C@@H](C)CC)C(=O)N(C)CC(=O)N(C)[C@H]2C/C=C\CCN(C2=O)[C@@H](Cc2ccc(C(F)(F)F)cc2)C(=O)N(C)CC(=O)N[C@@H](CCc2cc(F)c(C(F)(F)F)c(F)c2)C(=O)N2CC(F)(F)C[C@H]2C(=O)NC2(CC(C)(C)C2)C(=O)N(C)[C@@H](C2CCCC2)C(=O)N(C)[C@H](C(=O)N(C)C)CC(=O)N1C [PP1718]	0.0025			HRAS /KRAS [1, 8]: A (a compound having 10 or more and less than 20 is denoted as A); NRAS /KRAS [2, 9]: AA (a compound having 20 or more is denoted as AA)
CC[C@H](C)[C@@H]1NC(=O)[C@H](CC(C)C)N(C)C(=O)C[C@@H](C(=O)N2CCOCC2)N(C)C(=O)[C@H](C2CCCC2)N(C)C(=O)C2(CCC2)NC(=O)[C@@H]2[C@H]3C[C@H]3CN2C(=O)[C@H](CCc2cc(F)c(C(F)(F)F)c(F)c2)NC(=O)CN(C)C(=O)[C@H](Cc2ccc(C(F)(F)F)cc2)N2CCCC[C@@H](C2=O)N(C)C(=O)CN(C)C1=O [PP0810]	0.0128	B (a compound having 3 or more and less than 10 is denoted as B)	B (a compound having 3 or more and less than 10 is denoted as B)	
CCCN1C(=O)CN(C)C(=O)CN(C)C(=O)[C@H]([C@@H](C)CC)NC(=O)[C@H](CC(C)C)N(C)C(=O)C[C@@H](C(=O)N(C)C)N(C)C(=O)[C@H](C2CCCC2)N(C)C(=O)C2(CCCC2)NC(=O)[C@@H]2CC(F)(F)CN2C(=O)[C@H](CCc2ccc(C(F)(F)F)c(Cl)c2)NC(=O)CN(C)C(=O)[C@@H]1Cc1ccc(C(F)(F)F)cc1 [PP0413] ([NMeL]I[Sar][Sar][NPrPhe(4-CF3)][Sar][hPhe(3-Cl-4-CF3)][Pro(4,4-F2)][Ac5c][NMeGly(cPent)][NMeD]-NMe2; lactam N-11)	0.002			HRAS /KRAS [1, 4]: C (A compound having a KD ratio of 0.1 or more and less than 3 is denoted as C); NRAS /KRAS [2, 5]: C (A compound having a KD ratio of 0.1 or more and less than 3 is denoted as C)
CCO[C@@H]1C[C@H]2C(=O)NC3(CCC3)C(=O)N(C)[C@@H]([C@@H](C)CC)C(=O)N(C)[C@H](C(=O)N(C)C)CC(=O)N(C)[C@@H](CC)C(=O)N[C@@H]([C@@H](C)CC)C(=O)N(C)CC(=O)N(C)[C@H]3C/C=C\CCN(C3=O)[C@@H](Cc3ccc(C(F)(F)F)cc3)C(=O)N(C)CC(=O)N[C@@H](CCc3cc(F)c(C(F)(F)F)c(F)c3)C(=O)N2C1 [PP1087]	0.0404	A (a compound having 10 or more and less than 20 is denoted as A)	A (a compound having 10 or more and less than 20 is denoted as A)	
CCO[C@@H]1C[C@H]2C(=O)NC3(CCC3)C(=O)N(C)[C@@H](C3CCCC3)C(=O)N(C)[C@H](C(=O)N3CCOCC3)CC(=O)N(C)[C@@H](CC3CC3)C(=O)N[C@@H]([C@@H](C)CC)C(=O)N(C)CC(=O)N(C)[C@H]3CCCCN(C3=O)[C@@H](Cc3ccc(C(F)(F)F)cc3)C(=O)N(C)CC(=O)N[C@@H](CCc3cc(F)c(C(F)(F)F)c(F)c3)C(=O)N2C1 [PP0712]	0.0071			HRAS /KRAS [1, 4]: C (A compound having a KD ratio of 0.1 or more and less than 3 is denoted as C); NRAS /KRAS [2, 5]: C (A compound having a KD ratio of 0.1 or more and less than 3 is denoted as C)
CCO[C@H]1CCN2C(=O)[C@H](CCc3cc(F)c(C(F)(F)F)c(F)c3)NC(=O)CN(C)C(=O)[C@H](Cc3ccc(C(F)(F)F)cc3)N3CCCC[C@@H](C3=O)N(C)C(=O)CN(C)C(=O)[C@H]([C@@H](C)CC)NC(=O)[C@H](CC(C)C)N(C)C(=O)C[C@@H](C(=O)N3CCOCC3)N(C)C(=O)[C@H](C3CCCC3)N(C)C(=O)C3(CCC3)NC(=O)[C@H]12 [PP1076]	0.0046	B (a compound having 3 or more and less than 10 is denoted as B)	B (a compound having 3 or more and less than 10 is denoted as B)	
CCC[C@H]1C(=O)N[C@@H]([C@@H](C)CC)C(=O)N(C)CC(=O)N(C)[C@H]2C/C=C\CCN(C2=O)[C@@H](Cc2ccc(C(F)(F)F)cc2)C(=O)N(C)CC(=O)N[C@@H](CCc2cc(F)c(C(F)(F)F)c(F)c2)C(=O)N2C[C@H](OCC)C[C@H]2C(=O)NC2(CCC2)C(=O)N(C)[C@@H](C2CCCC2)C(=O)N(C)[C@H](C(=O)N(C)CCOC)CC(=O)N1C [PP1331]	0.0139			HRAS /KRAS ([1]; ratio of KD with respect to HRAS wild-type protein to KD with respect to KRAS): A (a compound having 10 or more and less than 20 is denoted as A); NRAS /KRAS ([2]; ratio of KD with respect to GDP-bound NRAS wild-type protein to KD with respect to KRAS): A (a compound having 10 or more and less than 20 is denoted as A)
CCO[C@@H]1C[C@H]2C(=O)NC3(CCC3)C(=O)N(C)[C@@H](C3CCCC3)C(=O)N(C)[C@H](C(=O)N(C)C)CC(=O)N(C)[C@@H](CC3CCCC3)C(=O)N[C@@H]([C@@H](C)CC)C(=O)N(C)CC(=O)N(C)[C@H]3C/C=C\CCN(C3=O)[C@@H](Cc3ccc(C)cc3)C(=O)N(C)CC(=O)N[C@@H](CCc3ccc(Cl)c(Cl)c3)C(=O)N2C1 [PP1487]	0.0466			HRAS /KRAS [1, 8]: A (a compound having 10 or more and less than 20 is denoted as A); NRAS /KRAS [2, 9]: A (a compound having 10 or more and less than 20 is denoted as A)
CCCN1C(=O)[C@@H]2CCN2C(=O)CN(C)C(=O)[C@H]([C@@H](C)CC)NC(=O)[C@H](CC(C)C)N(C)C(=O)C[C@@H](C(=O)N2CCOCC2)N(C)C(=O)[C@H](C2CCCC2)N(C)C(=O)[C@](C)(CCC)NC(=O)[C@@H]2CCCN2C(=O)[C@H](CCc2cc(F)c(C(F)(F)F)c(F)c2)NC(=O)CN(C)C(=O)[C@@H]1Cc1ccc(C(F)(F)F)cc1 [PP0794] ([NMeL]I[Sar][Aze][NPrPhe(4-CF3)][Sar][hPhe(3,5-F2-4-CF3)]P[X3][NMeGly(cPent)][NMeD]-Morpholide; lactam N-11)	0.122	B (a compound having 3 or more and less than 10 is denoted as B)	C (A compound having a KD ratio of 0.1 or more and less than 3 is denoted as C)	
CC[C@H](C)[C@@H]1NC(=O)[C@H](CC(C)C)N(C)C(=O)C[C@@H](C(=O)N2CCOCC2)N(C)C(=O)[C@H](C2CCCC2)N(C)C(=O)C2(CCCC2)NC(=O)[C@@H]2CCCN2C(=O)[C@H](CCc2ccc(C(F)(F)F)c(Cl)c2)NC(=O)CN(C)C(=O)[C@H](Cc2ccc(C(F)(F)F)cc2)N(CCOC)C(=O)CN(C)C(=O)CN(C)C1=O [PP0132] ([NMeL]I[Sar][Sar][X34][Sar][hPhe(3-Cl-4-CF3)]P[Ac5c][NMeGly(cPent)][NMeD]-Morpholide; lactam N-11)	0.0148	C (A compound having a KD ratio of 0.1 or more and less than 3 is denoted as C)	C (A compound having a KD ratio of 0.1 or more and less than 3 is denoted as C)	
CCC[C@H]1C(=O)N[C@@H]([C@@H](C)CC)C(=O)N(C2CC2)CC(=O)N(C)[C@H]2C/C=C\CCN(C2=O)[C@@H](Cc2ccc(C(F)(F)F)cc2)C(=O)N(C)CC(=O)N[C@@H](CCc2ccc(C(F)(F)F)c(OC)c2)C(=O)N2C[C@H](OCC)C[C@H]2C(=O)N(C)C2(CCC2)C(=O)N(C)[C@@H](C2CCCC2)C(=O)N(C)[C@H](C(=O)N2CCCCC2)CC(=O)N1C [PP3095]	0.0337	A (a compound having 10 or more and less than 20 is denoted as A)	A (a compound having 10 or more and less than 20 is denoted as A)	
